B1: alanine racemase from Streptococcus pneumoniae (enzyme, UniProt P0A2W8 1-367, looked up)
chain: MKASPHRPTKALIHLGAIRQNIQQMGAHIPQGTLKLAVVKANAYGHGAVAVAKAIQDDVDGFCVSNIDEAIELRQAGLSKPILILGVSEIEAVALAKEYDFTLTVAGLEWIQALLDKEVDLTGLTVHLKIDSGMGRIGFREASEVEQAQDLLQQHGVCVEGIFTHFATADEESDDYFNAQLERFKTILASMKEVPELVHASNSATTLWHVETIFNAVRMGDAMYGLNPSGAVLDLPYDLIPALTLESALVHVKTVPAGACMGYGATYQADSEQVIATVPIGYADGWTRDMQNFSVLVDGQACPIVGRVSMDQITIRLPKLYPLGTKVTLIGSNGDKEITATQVATYRVTINYEVVCLLSDRIPREYY
modifications: PLP covalently bound to Lys40 by an internal aldimine bond (N'-pyridoxyl-lysine-5'-monophosphate, LLP); carbamylated Lys129
notes: alanine racemase (E.C. 5.1.1.1) of Streptococcus pneumoniae; the gene was cloned into pET17; the model holds residues 1-367 of each monomer (734 residues, 100%): alpha/beta barrel domain 1-238 and beta-strand domain 239-367; no tag is named; also called AlrSP; Alr

Experiments:
[1] = target: T1, alanine racemase from S. pneumoniae (AlrSP) (Streptococcus pneumoniae, UniProt P0A2W8); test: X-ray crystallography, […] Å; type: binding; conditions: covalent; internal aldimine with Lys40 (LLP residue); active site; crystals grown at pH 7.2, 4 °C
T1 construct: gene alr; untagged as far as told, gene in pET17, E. coli BL21(DE3) pLysS; monomer residues 1-367; homodimer; Lys129 carbamylated
T1 sequence (P0A2W8 1-367): B1 chain

[2] = target: the molecule itself; test: crystal structure; sitting drop vapor diffusion at 4°C, 1.2 M Na citrate, 0.1 M MES pH 7.2, 10% glycerol, protein 23 mg/ml; space group P3(1)21, two monomers in the asymmetric unit; 2.0 Å

Molecule	X-ray crystallography, 2.0 Å [1]	stoichiometry N [2]
Cc1ncc(COP(=O)(O)O)c(C=O)c1O [pyridoxal phosphate (PLP)]	The pyridoxal phosphate (PLP) cofactor is connected to Lys40 through an internal aldimine bond	–
B1	–	2

Reference: PMC3146814, “The crystal structure of alanine racemase from Streptococcus pneumoniae, a target for structure-based drug design” (BMC Microbiology, 2011)
